Consider 24 compounds from patent US20170269060A1, “Assays and Compounds to Treat Kidney Diseases” (Rush University Medical Center, priority 2014, published 2017).

Values after ≈ are worked out from the molar mass of the structure shown.

Experiment [1] has as its system murine podocytes. The experiment can be described thus: Primary HCS screen of chemical library, cell roundness Z score, PAN injury. Type of experiment: cell-based. Conditions: PAN 16 μg/ml, 48 hours; for primary hit (protects podocytes from PAN damage): Z-score cutoff ≦−1.28. The method, then:
Screening of chemical libraries, which include the MicroSource Spectrum collection (MicroSource Discovery Systems, Inc., Gaylorsville, C T, 2000 compounds) and Enzo kinase inhibitor array (Enzo Life Sciences, Farmingdale, N.Y., 80 compounds), Sigma, Millipore, Tocris and Cayman (41 compounds), was performed using multiwall plates. Podocytes cultured in multiwall plates were used in these assays. 100 nL of each compound, also in multiwall plates (at a stock concentration of 1 mM to 10 mM in DMSO), was added to each well of a podocyte containing multiwall plate using the Perkin Elmer Janus automated workstation with the help of a 96-pin or 384-pin pin tool (100 nL, PerkinElmer). The compounds were added in the absence or presence of podocyte damaging agent (such as PAN). The plates containing the compounds were subsequently placed in tissue culture incubators and cells were further cultured for 1-72 h at 37° C. A compound that decreased PAN damaged was identified by quantifying the changes in at least one of the following parameters: cell morphology, cell roundedness, F-actin intensity, number of focal adhesions, intensity or size of focal adhesions, length of actin fibers, size of actin fibers, percent damaged or percent healthy cells etc. In certain cases, hits were validated by acquiring a fresh batch of the compound from commercial sources and performing dose-response curves. Images from the primary screen were quantified for cell morphology parameter and were normalized by calculating z-score (z) for each test compound, to compensate for any plate-to-plate variability. (Wiggins, Kidney International, 2007) z was calculated for each of the test compounds using the formula: […]
where x is the raw measured value with each compound, μ is the mean of all measured raw values across a plate and a is the standard deviation of the measurements. A z-score of […], corresponding to 90% population under the curve, was used as a cutoff to identify primary hits in the assay.
To identify small molecules that protect podocytes from PAN injury, a chemical library of 2121 pharmacologically active compounds was screened. Podocytes were treated with compounds from the chemical library in the presence of PAN (16 μg/ml) at 37° C. for 48 hours. The assay plates also contained eight positive (PAN and MZR treatment) and eight negative (PAN treatment) control wells. Wells were imaged and analyzed, and the mean cell roundness per cell was calculated for each well. Mean cell roundness was normalized using plate-based positive and negative controls, and a Z score for the change in cell morphology on treatment with each compound (SD away from the plate mean) was calculated. The results from the screen are presented as a graph in FIG. 7A. Wells with nuclei counts. […] Primary hits (compounds that protected podocytes from PAN damage) were identified from the assay using a Z-score cutoff of ≦−1.28 corresponding to the 10% population on one side of the bell-shaped curve. […] Given that our assay is image based, the images from all initial hits were visually inspected manually, which eliminated 10 compounds as nonhits. […] The identified list of primary hit compounds included three Rho kinase inhibitors (Y27632, GSK 429286, and Thiazovivin) and a p38 kinase inhibitor (SB 203580). […] Next, to validate the hit compounds identified from our screen, selected primary hits were reanalyzed using independently obtained powder forms of the compounds.

Experiment [2] has as its system murine podocytes. The experiment can be described thus: Podocyte HCS phenotypic assay, PAN-induced podocyte injury. Type of experiment: cell-based. Conditions: for prevention of PAN induced injury, dose-response of percent damaged cells (FIG. 4A-4P): 30 ug/ml PAN, co-treatment, multi-parameter algorithm. Here is the method:
Conditionally immortalized human and murine podocytes were used in a majority of the assays. Human and murine podocytes were cultured as have been described previously (Saleem et al., JASN 13, 630-638 (2002); Mundel, Reiser et al., Experimental Cell Research, 236, p 248 (1997)). For example, murine podocytes derived from the mouse line H-2Kb-tsA58 were cultured under permissive conditions at 33° C. on rat-tail collagen coated dishes in RPMI medium supplemented with 10% heat inactivated FBS, penicillin and streptomycin (100 U/ml), and 10 U/ml recombinant mouse γ-interferon. Cells were then trypsinized and re-plated for differentiation at 37° C. in medium without γ-interferon. The cells were differentiated for 0 to 7 days and then reseeded to rat-tail collagen coated multi-well plates at a density of 1500/well or 500/well for 96 and 384 well plates, respectively. Cells were then further differentiated for another 5-14 days in the multi-well plates for subsequent experimentation with various reagents prior to fixation and analyses.
In some embodiments, podocytes were cultured at 37° C. for the first 7 days of differentiation in large tissue culture flasks and subsequently reseeded and further cultured at 37° C. in the 96-well assay plates for the next 4-6 days to provide low well-to-well variability in cell number in the assay plates and healthy podocytes expressing specific and well characterized podocyte markers synaptopodin and podocin.
Differentiated podocytes were cultured in 96-well or 384-well multiwall optical plates (PerkinElmer, Boston, Mass.). In some embodiments, differentiated podocytes were treated with various amounts of puromycin aminonucleoside (PAN), […] LPS, Adriamycin and other agents. In some embodiments, the cells were co-treated with chemical and other agents (such as mizouribine) to prevent damage from damaging agents (such as PAN). In other embodiments, the rescue agents were added 0-48 h after the addition of injury causing agents. In some embodiments, patient samples such as blood, serum, urine or other samples were added to differentiated podocytes to identify disease causing agents. In some embodiments, primary, differentiated patient podocytes were cultured to identify defects in structure and/or function.
After culturing for the appropriate time and treatment or control, cultured podocytes in multi-well optical plates were rinsed with phosphate buffered saline (PBS) and subsequently fixed using a solution of paraformaldehyde and sucrose in PBS (at a final concentration of 4% paraformaldehyde and 2% sucrose in PBS) for 30 min at room temperature. Following fixation, the cells were permeabilization using a solution of 0.3% Triton X-100 in PBS for 15 min at room temperature. For visualization of filamentous-actin (F-Actin) in cells, cells were stained with a solution of Alexa fluor 568 phalloidin (Invitrogen), as previously described. HCS CellMask Blue (Invitrogen) was used as a fluorescent stain for visualizing nuclei, cytoplasm and the individual cell boundaries. Additional proteins that were fluorescently labeled and analyzed using appropriate primary mAbs include synaptopodin (synpo, primary mAb from Santa Cruz), Paxillin (primary mAb clone Y113 from Millipore) for quantitation of focal adhesions, beta1 integrin, podocin, WT1 nephrin, CD2-AP may also be used. Other proteins may also be used for labeling. Appropriate secondary antibodies (fluorescently labeled) were used for fluorescent visualizations. High throughput confocal microscopy was done using the Opera LX (Perkin Elmer) with filters and exposure times according to manufacturer's instructions and as described before. Images were used in subsequent image analysis for quantitation of a variety of cellular parameters. Assays were performed in replicate wells for assay robustness.
Images for each frame of each well in multiple fluorescent channels were acquired using OPERA imaging system. […]

As for `C#C[C@]1(OC(C)=O)CC[C@H]2[C@@H]3CCC4=CC(=NO)CC[C@@H]4[C@H]3CC[C@@]21CC` (mixture of isomers) [norgestimate], the “primary hit (protects podocytes from PAN damage)” value in experiment [1] is “identified”.
Consider `Cc1cccc(-c2[nH]ncc2-c2ccc3ncccc3n2)n1` [Alk5 Inhibitor2], for which the “prevention of PAN induced injury, dose-response of percent damaged cells (FIG. 4A-4P)” value in experiment [2] is given as “prevented PAN induced injury”.
In the case of `O=c1cc(-c2ccc(O)cc2)oc2cc(O)cc(O)c12` [Apigenin], the “prevention of PAN induced injury, dose-response of percent damaged cells (FIG. 4A-4P)” value in experiment [2] is given as “prevented PAN induced injury”. Further, in experiment [1], the “primary hit (protects podocytes from PAN damage)” value is “primary hits”.
The like results for `COc1ccc2cc3[n+](cc2c1OC)CCc1cc2c(cc1-3)OCO2` [Berberine] were, in that order, “prevented PAN induced injury” and “primary hits”.
For the compound `C[C@@H]1C[C@H]2[C@@H]3CCC4=CC(=O)C=C[C@]4(C)[C@@]3(F)[C@@H](O)C[C@]2(C)[C@@]1(O)C(=O)CO` [DEX, Dexamethasone], in experiment [2] (PAN 30 μg/ml, F-actin fiber count, 48 h), the “lowest concentration able to protect cells from PAN damage” value stood at 0.1 µM.
As to `COc1ccc(-c2cc(=O)c3c(O)cc(O)cc3o2)cc1O` [Diosmetin], the “prevention of PAN induced injury, dose-response of percent damaged cells (FIG. 4A-4P)” value in experiment [2] is “prevented PAN induced injury”.
For the compound `COc1cc2nc(N3CCN(C(=O)C4COc5ccccc5O4)CC3)nc(N)c2cc1OC` (stereo not shown) [Doxazocin], the “prevention of PAN induced injury, dose-response of percent damaged cells (FIG. 4A-4P)” value in experiment [2] is reported as “prevented PAN induced injury”. Moreover, in experiment [1], the “primary hit (protects podocytes from PAN damage)” value is on record as “primary hits”.
As to `CCOc1ccc(Cc2nccc3cc(OCC)c(OCC)cc23)cc1OCC` [Ethaverine], the “prevention of PAN induced injury, dose-response of percent damaged cells (FIG. 4A-4P)” value in experiment [2] is given as “prevented PAN induced injury”.
With `Nc1[nH]nc2nnc(-c3c(-c4ccccc4)nn4ccccc34)cc12` [FR 180204], the “prevention of PAN induced injury, dose-response of percent damaged cells (FIG. 4A-4P)” value in experiment [2] was “prevented PAN induced injury”.
On to `CC1=C(C(=O)Nc2cc3cn[nH]c3cc2F)C(c2ccc(C(F)(F)F)cc2)CC(=O)N1` (stereo not shown) [GSK429286], for which the “prevention of PAN induced injury, dose-response of percent damaged cells (FIG. 4A-4P)” value in experiment [2] is “prevented PAN induced injury”. For the same compound, the “primary hit (protects podocytes from PAN damage)” value in experiment [1] was “primary hit”.
For `O=C1Cc2c([nH]c3ccc(Br)cc23)-c2ccccc2N1` [Kenpoullon], the “prevention of PAN induced injury, dose-response of percent damaged cells (FIG. 4A-4P)” value in experiment [2] is recorded as “prevented PAN induced injury”.
In the case of `c1coc(CNc2ncnc3[nH]cnc23)c1` [Kinetin], in experiment [2], the “prevention of PAN induced injury, dose-response of percent damaged cells (FIG. 4A-4P)” value is recorded as “prevented PAN induced injury”.
Consider `NC(=O)c1ncn([C@@H]2O[C@H](CO)[C@@H](O)[C@H]2O)c1O` [MZR, Mizoribine], for which the EC50 in experiment [2] (Mus musculus, PAN 30 μg/ml, 48 hours, read-out: concentration reducing PAN damage by one half (half-maximal effective concentration)) worked out at 1.4 µg/mL (≈ 5.4 µM). The “concentration affording complete protection of podocytes from PAN injury” value in experiment [2] (PAN 30 μg/ml, 48 hours) came out at 5 µg/mL. Further, in experiment [2] (PAN 16-30 μg/ml, 48 hours, F-actin fibers and other parameters), the “dose-dependent protection of podocytes from PAN-induced injury” value is recorded as “dose-dependent protection”. Also, the “Z score of cell roundness” value in experiment [1] (37° C., negative Z score = active) is −2.31±0.2.
With `COc1nccc(-c2c(-c3ccc(F)cc3)ncn2C2CCC(O)CC2)n1` (stereo not shown) [P38 inhibitor (SB239063)], the “prevention of PAN induced injury, dose-response of percent damaged cells (FIG. 4A-4P)” value in experiment [2] is “prevented PAN induced injury”.
On to `CN(C)c1ncnc2c1ncn2[C@@H]1O[C@H](CO)[C@@H](N)[C@H]1O` [PAN, puromycin aminonucleoside], for which the PAN concentration causing half-maximal damage in experiment [2] (Mus musculus, 48 h, read-out: PAN concentration causing half-maximal damage (half-maximal inhibitory concentration)) is 16 µg/mL.
As to `C[S+]([O-])c1ccc(-c2nc(-c3ccncc3)c(-c3ccc(F)cc3)[nH]2)cc1` (stereo not shown) [SB 203580], in experiment [1], the “primary hit (protects podocytes from PAN damage)” value was “primary hit”.
With `O=C(NCc1ccccc1)c1csc(Nc2ccncn2)n1` [Thiazovivin], the “primary hit (protects podocytes from PAN damage)” value in experiment [1] is “primary hit”.
Consider `Nc1nc2nc[nH]c2c(=S)[nH]1` [Thioguanidine], for which the “prevention of PAN induced injury, dose-response of percent damaged cells (FIG. 4A-4P)” value in experiment [2] is “prevented PAN induced injury”. Besides, in experiment [1], the “primary hit (protects podocytes from PAN damage)” value is “primary hits”.
With `C[C@@H](N)[C@H]1CC[C@H](C(=O)Nc2ccncc2)CC1` [Y27632], the “prevention of PAN induced injury, dose-response of percent damaged cells (FIG. 4A-4P)” value in experiment [2] is given as “prevented PAN induced injury”. Also, the “primary hit (protects podocytes from PAN damage)” value in experiment [1] is “primary hit”.
Regarding `C=CC[C@]1(O)CC[C@H]2[C@@H]3CCC4=CC(=O)CCC4=C3C=C[C@@]21C` [altrenogest], in experiment [1], the “primary hit (protects podocytes from PAN damage)” value is on record as “identified”.
As to Agelasine, in experiment [2], the “prevention of PAN induced injury, dose-response of percent damaged cells (FIG. 4A-4P)” value is reported as “prevented PAN induced injury”. Further, the “primary hit (protects podocytes from PAN damage)” value in experiment [1] is listed as “primary hits”.
Derusnin: in experiment [2], the “prevention of PAN induced injury, dose-response of percent damaged cells (FIG. 4A-4P)” value is reported as “prevented PAN induced injury”.
Consider Mundeserone, for which the “prevention of PAN induced injury, dose-response of percent damaged cells (FIG. 4A-4P)” value in experiment [2] is “prevented PAN induced injury”.
As to antimycin A, the “primary hit (protects podocytes from PAN damage)” value in experiment [1] is “primary hits”.
